Data: patent publication US20240390521A1, “CHIMERIC MODIFIED ION CHANNELS AND USES THEREOF FOR TREATMENT OF TRIGEMINAL NERVE DISORDERS” (Kriya Therapeutics, Inc., priority 2023, published 2024)
Structures can show the parent of a compound that is named as a salt.

Legend:
[1] = target: α7^L131G, Q139L, Y217F-GlyR LGIC (Homo sapiens, UniProt P36544, L131G/Q139L/Y217F); test: Agonist potency at the modified chimeric LGIC; assay type: cell-based
rat IoN-CCI model = test: Rat IoN-CCI model of trigeminal neuralgia, von Frey filament escape threshold (ET); assay type: in vivo
Procedure: Infraorbital nerve (IoN) chronic constriction injury (IoN-CCI) is an art-recognized animal model of trigeminal neuralgia (Vos et al. J Neurosci 14 (5 Pt 1): 2708-2723, 1994).
Mechanical allodynia was measured using a von Frey filament assay to define the escape threshold [ET]) in the rat IoN-CCI model. The total study duration was 6 months with two intermittent time points (2-and 4-months). Behavioral efficacy, as assessed by ET, and transgene expression in the trigeminal ganglion were evaluated.
Twelve groups of male and female adult rats were treated. AAV5-m-α7-GlyR LGIC vectors were injected percutaneously into the left trigeminal ganglion whereas the right untreated trigeminal ganglion served as control.
Naïve animals (no IoN-CCI, no AAV5-m-α7-GlyR LGIC or varenicline dosing) served as intact controls for behavioral and molecular analysis.
Varenicline tartrate was administered orally. A tartrate correction factor of 1.71 was applied in dose formulations.
Efficacy presented below is a combination of all 3 time points (2, 4, and 6 months) for each treatment group.

[2] = system: m-α7-GlyR LGICs expressed in mouse cortical neurons; test: Evoked neuronal activity in mouse cortical neurons expressing m-α7-GlyR LGICs; assay type: cell-based; conditions: data not shown
[3] = system: m-α7-GlyR ion channels in cultured hippocampal neurons; test: Sustained varenicline exposure of cultured hippocampal neurons expressing m-α7-GlyR; assay type: cell-based; conditions: varenicline 15 nM for 18 days; data not shown
[4] = Varenicline concentrations in blood, PFC and CSF after single oral administration; assay type: in vivo, rat; conditions: male rats
[5] = 28-day study: varenicline PK in blood samples; assay type: in vivo, rat
Procedure: A 28-day biodistribution/toxicity study was conducted.

CNS function = conditions: rat, in vivo
m-α7-GlyR LGIC = target: T1, m-α7-GlyR LGIC (Homo sapiens, UniProt P36544, L131G/Q139L/Y217F); test: Constitutive activity of m-α7-GlyR LGIC without varenicline; assay type: in vivo, rodents; conditions: absence of varenicline
T1 construct: expressed in transfected cells; host or cells: rodent neurons expressing the transgene (mouse cortical neurons, cultured hippocampal neurons; rat trigeminal ganglion after AAV5 injection)

Molecule: C[N+](C)(C)CCO [choline]
- EC50 [1]: > 50 µM

Molecule: c1cnc2cc3c(cc2n1)[C@@H]1CNC[C@H]3C1 [varenicline, 6,10-Methano-6H-pyrazino[2,3-h][3]benzazepine, 7,8,9,10-tetrahydro-5,8,14-triazatetracyclo[10.3.1.02,11.04,9]hexadeca-2,4,6,8,10-pentaene tartrate salt]
- improvement of pain sensitivity, single agent alone (rat IoN-CCI model; Group 6 varenicline alone, Group 7 AAV5-m-α7-GlyR LGIC (6×10^8 vg) alone, tartrate salt): neither varenicline alone nor AAV5-m-α7-GlyR LGIC alone (Groups 6 and 7, respectively) demonstrated improved pain sensitivity
- varenicline levels at the time of sample collection (rat IoN-CCI model; all animals receiving treatment): within predictable levels
- effect of activation by varenicline on evoked neuronal activity [2]: reversible inhibition of evoked neuronal activity
- tachyphylaxis or down regulation of expressed m-α7-GlyR LGICs [3]: did not result in tachyphylaxis or down regulation
- time of peak varenicline concentration in CSF [4]: 60 min
- time of peak varenicline concentration in PFC [4]: 90 min
- time of peak varenicline concentration in blood [4]: 60 min
- decrease of varenicline level ([5]; 6 hours post-dose vs 2 hours, 1 mg/kg p.o.): approximately 50%
- concentration at 2 h ([5]; rat, blood, po, 2 hours post-dose, 1 mg/kg p.o., average across groups): ~480 nM
- concentration at 24 h ([5]; rat, blood, po, 24 hours post final dose, 1 mg/kg p.o. daily, average): 4.4 nM
- sex differences in plasma varenicline levels ([5]; rat, in vivo): no sex differences in plasma varenicline levels
- treatment related changes in the neurological assessments (CNS function): no AAV5-m-α7-GlyR LGIC, varenicline or AAV5-m-α7-GlyR LGIC+varenicline related changes in the neurological assessments

B1: m-α7-GlyR LGIC: human chimeric ion channel: modified nicotinic α7 receptor binding domain and glycine channel ion pore domain; SEQ ID NO: 1 (protein)
chain: MRCSPGGVWLALAASLLHVSLQGEFQRKLYKELVKNYNPLERPVANDSQPLTVYFSLSLLQIMDVDEKNQVLTTNIWLQMSWTDHYLQWNVSEYPGVKTVRFPDGQIWKPDILLYNSADERFDATFHTNVGVNSSGHCLYLPPGIFKSSCYIDVRWFPFDVQHCKLKFGSWSYGGWSLDLQMQEADISGYIPNGEWDLVGIPGKRSERFYECCKEPFPDVTFTVTMRRRMGYYLIQMYIPSLLIVILSWISFWINMDAAPARVGLGITTVLTMTTQSSGSRASLPKVSYVKAIDIWMAVCLLFVFSALLEYAAVNFVSRQHKELLRFRRKRRHHKEDEAGEGRFNFSAYGMGPACLQAKDGISVKGANNSNTTNPPPAPSKSPEEMRKLFIQRAKKIDKISRIGFPMAFLIFNMFYWIIYKIVRREDVHNQ
- constitutive activity (m-α7-GlyR LGIC): no constitutive activity
